Values of other authors, collected in patent US12569183B2 (University Of Maryland, Baltimore, priority 2018, dated 2026).

Tests used:
[1] = clinical trials; median baseline QTc 405 msec
[2] = rapid IV infusions; hypotension, dyspnea, QT prolongation
[3] = administered twice daily, steady state on day 3

CC(C)NCC(O)c1ccc(NS(C)(=O)=O)cc1 (stereo not drawn) [sotalol]
slope of the concentration QTc relationship [1]: 0.0158 ms/ng/mL | adverse events [2]: only mild to moderate adverse events | number of doses until steady-state exposures [3]: 4-5 doses
